Experimental data published in ChEMBL document CHEMBL5291721, “A preclinical secondary pharmacology resource illuminates target-adverse drug reaction associations of marketed drugs” (Nat Commun, 2023).

Assays:
[1] = molecular target: T1, Peroxisome proliferator-activated receptor alpha (Homo sapiens, UniProt Q07869); format: functional
T1 sequence (Q07869 whole entry): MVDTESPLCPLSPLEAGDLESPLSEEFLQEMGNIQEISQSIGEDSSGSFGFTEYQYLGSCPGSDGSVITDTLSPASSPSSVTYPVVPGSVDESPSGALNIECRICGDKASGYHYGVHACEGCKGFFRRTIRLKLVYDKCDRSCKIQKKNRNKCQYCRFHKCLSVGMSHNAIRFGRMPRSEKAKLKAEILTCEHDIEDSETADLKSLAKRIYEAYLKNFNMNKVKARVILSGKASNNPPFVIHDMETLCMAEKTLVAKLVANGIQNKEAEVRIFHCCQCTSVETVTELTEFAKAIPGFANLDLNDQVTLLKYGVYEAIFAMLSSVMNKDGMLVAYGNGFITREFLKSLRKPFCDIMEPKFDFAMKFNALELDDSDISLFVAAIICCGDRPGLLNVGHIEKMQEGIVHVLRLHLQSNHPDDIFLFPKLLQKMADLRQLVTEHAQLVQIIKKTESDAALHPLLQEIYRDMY

[2] = molecular target: T1, Peroxisome proliferator-activated receptor alpha; format: functional; remark: listed apart in the source
[3] = molecular target: 5-hydroxytryptamine receptor 2B (Homo sapiens, UniProt P41595); format: functional, cell-based
Chain of 5-hydroxytryptamine receptor 2B (P41595 whole entry): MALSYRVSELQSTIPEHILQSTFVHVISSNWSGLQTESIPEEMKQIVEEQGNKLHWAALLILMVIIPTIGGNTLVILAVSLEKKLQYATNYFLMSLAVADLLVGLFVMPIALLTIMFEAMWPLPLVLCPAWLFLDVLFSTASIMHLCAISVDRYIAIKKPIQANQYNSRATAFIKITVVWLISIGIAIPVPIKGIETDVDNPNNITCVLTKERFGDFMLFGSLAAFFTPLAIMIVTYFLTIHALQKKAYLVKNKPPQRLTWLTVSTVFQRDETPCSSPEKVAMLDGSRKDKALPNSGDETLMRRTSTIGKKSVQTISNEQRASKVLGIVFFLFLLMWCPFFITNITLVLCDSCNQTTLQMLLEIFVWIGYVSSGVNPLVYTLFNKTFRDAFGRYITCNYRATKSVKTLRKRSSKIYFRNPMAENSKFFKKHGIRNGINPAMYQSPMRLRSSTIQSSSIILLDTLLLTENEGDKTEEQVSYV

Thromboxane A2 receptor = molecular target: T2, Thromboxane A2 receptor (Homo sapiens, UniProt P21731); format: functional, cell-based
T2 sequence (P21731 whole entry): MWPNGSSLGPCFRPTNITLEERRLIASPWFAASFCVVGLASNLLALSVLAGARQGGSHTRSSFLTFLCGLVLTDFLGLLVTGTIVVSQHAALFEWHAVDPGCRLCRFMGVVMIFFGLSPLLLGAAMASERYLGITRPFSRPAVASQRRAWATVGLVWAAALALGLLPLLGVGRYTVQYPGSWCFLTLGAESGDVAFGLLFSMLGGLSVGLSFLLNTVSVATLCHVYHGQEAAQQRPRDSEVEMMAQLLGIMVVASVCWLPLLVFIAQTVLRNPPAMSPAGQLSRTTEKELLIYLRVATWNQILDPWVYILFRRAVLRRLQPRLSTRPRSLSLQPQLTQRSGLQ

[4] = molecular target: T3, 5-hydroxytryptamine receptor 1A (Homo sapiens, UniProt P08908)
T3 sequence (P08908 whole entry): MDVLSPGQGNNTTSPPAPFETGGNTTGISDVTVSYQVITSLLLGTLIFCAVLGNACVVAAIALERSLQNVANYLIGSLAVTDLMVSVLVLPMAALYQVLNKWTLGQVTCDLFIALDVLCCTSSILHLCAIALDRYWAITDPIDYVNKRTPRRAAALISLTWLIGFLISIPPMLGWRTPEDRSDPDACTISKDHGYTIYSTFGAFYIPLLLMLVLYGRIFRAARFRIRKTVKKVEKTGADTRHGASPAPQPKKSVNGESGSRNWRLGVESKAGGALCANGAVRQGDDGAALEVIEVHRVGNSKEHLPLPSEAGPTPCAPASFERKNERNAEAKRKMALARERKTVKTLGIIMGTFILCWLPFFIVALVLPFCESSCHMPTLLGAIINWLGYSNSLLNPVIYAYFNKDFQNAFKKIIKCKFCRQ

[5] = molecular target: T4, Muscarinic acetylcholine receptor M2 (Homo sapiens, UniProt P08172)
T4 sequence (P08172 whole entry): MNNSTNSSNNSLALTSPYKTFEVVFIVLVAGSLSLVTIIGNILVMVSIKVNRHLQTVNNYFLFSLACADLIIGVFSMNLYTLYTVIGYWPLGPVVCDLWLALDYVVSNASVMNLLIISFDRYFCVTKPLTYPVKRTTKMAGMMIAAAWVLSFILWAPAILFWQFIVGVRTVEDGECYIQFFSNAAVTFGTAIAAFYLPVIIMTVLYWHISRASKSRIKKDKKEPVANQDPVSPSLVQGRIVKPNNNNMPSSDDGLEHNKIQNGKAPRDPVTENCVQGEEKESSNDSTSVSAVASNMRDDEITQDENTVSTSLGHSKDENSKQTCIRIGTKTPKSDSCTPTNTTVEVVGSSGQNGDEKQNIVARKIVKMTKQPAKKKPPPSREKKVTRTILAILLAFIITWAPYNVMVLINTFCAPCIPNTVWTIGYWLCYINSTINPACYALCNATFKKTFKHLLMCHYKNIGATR

[6] = molecular target: T5, Amine oxidase [flavin-containing] A (Homo sapiens, UniProt P21397); format: functional
T5 sequence (P21397 whole entry): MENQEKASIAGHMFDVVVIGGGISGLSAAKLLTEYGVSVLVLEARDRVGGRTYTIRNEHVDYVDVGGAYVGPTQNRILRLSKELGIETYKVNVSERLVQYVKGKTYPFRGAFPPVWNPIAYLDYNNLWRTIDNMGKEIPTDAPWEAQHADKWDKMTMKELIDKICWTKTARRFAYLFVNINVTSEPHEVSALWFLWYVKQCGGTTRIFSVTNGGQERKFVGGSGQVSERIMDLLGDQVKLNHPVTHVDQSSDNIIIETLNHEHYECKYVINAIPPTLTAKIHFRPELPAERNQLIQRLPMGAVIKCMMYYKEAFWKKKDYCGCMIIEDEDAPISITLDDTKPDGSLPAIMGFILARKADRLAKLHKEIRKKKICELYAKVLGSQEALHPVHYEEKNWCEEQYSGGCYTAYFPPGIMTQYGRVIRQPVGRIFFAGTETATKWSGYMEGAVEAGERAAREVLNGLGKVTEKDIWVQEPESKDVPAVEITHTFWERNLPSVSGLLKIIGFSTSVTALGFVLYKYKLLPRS

[7] = molecular target: 3',5'-cyclic-AMP phosphodiesterase 4A (Homo sapiens, UniProt P27815); format: functional
Chain of 3',5'-cyclic-AMP phosphodiesterase 4A (P27815 whole entry): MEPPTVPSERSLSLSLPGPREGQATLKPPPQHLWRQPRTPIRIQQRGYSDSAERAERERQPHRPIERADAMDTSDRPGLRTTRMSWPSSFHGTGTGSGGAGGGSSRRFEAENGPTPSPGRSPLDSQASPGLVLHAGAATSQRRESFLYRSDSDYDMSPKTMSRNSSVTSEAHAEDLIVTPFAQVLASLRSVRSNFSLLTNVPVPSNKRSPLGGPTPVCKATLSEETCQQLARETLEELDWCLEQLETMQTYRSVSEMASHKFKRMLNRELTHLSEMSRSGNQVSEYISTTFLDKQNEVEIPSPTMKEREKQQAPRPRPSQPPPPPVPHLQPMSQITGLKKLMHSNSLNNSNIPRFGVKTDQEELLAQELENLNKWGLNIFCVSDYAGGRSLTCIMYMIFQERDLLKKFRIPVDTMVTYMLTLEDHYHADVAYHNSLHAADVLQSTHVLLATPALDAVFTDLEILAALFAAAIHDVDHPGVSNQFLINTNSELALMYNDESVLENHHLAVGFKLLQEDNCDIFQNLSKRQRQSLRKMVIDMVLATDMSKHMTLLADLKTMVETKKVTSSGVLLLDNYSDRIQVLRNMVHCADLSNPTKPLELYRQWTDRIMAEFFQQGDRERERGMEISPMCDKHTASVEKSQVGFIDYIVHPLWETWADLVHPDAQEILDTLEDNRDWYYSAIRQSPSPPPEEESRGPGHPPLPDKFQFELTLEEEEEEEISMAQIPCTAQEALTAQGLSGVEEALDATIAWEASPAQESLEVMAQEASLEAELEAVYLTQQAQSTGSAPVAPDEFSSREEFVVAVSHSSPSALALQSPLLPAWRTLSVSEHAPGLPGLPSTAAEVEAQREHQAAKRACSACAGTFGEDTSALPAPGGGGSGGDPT

[8] = molecular target: cGMP-inhibited 3',5'-cyclic phosphodiesterase 3A (Homo sapiens, UniProt Q14432); format: functional
Chain of cGMP-inhibited 3',5'-cyclic phosphodiesterase 3A (Q14432 whole entry): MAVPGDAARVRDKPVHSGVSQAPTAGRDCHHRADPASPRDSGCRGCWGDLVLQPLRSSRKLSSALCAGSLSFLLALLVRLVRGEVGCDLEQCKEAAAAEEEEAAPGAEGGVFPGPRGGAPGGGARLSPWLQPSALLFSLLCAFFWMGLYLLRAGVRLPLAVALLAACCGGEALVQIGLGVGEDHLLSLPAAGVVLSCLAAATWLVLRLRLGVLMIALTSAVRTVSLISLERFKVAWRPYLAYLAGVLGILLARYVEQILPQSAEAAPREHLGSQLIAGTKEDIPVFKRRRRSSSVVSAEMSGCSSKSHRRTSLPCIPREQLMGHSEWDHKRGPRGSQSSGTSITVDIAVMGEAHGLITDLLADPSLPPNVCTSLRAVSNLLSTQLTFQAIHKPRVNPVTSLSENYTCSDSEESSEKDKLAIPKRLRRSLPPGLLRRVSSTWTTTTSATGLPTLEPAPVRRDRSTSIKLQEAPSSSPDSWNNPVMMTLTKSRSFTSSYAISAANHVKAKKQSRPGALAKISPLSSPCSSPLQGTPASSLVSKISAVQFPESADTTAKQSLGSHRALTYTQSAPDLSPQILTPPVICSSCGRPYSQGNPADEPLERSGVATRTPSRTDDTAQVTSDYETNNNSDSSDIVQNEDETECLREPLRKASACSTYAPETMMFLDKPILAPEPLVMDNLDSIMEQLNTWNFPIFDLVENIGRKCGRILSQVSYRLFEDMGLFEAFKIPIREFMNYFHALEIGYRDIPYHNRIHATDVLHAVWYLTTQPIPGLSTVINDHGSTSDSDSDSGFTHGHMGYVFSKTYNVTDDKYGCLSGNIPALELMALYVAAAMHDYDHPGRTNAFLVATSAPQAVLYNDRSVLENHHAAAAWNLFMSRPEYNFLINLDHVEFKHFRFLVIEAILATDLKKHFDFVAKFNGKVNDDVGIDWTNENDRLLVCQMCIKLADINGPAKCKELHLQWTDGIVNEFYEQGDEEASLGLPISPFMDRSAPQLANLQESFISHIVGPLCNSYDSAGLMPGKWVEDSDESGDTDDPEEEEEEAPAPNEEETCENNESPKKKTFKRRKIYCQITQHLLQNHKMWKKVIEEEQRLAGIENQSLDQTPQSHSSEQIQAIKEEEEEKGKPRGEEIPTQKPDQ

Measured: AC50
Also: assay procedure not described here.

CC(C)c1c(C(=O)Nc2ccccc2)c(-c2ccccc2)c(-c2ccc(F)cc2)n1CC[C@@H](O)C[C@@H](O)CC(=O)O [ATORVASTATIN]
> 30 µM: [1] | [2]

CC(C)(Oc1ccc(C2CC2(Cl)Cl)cc1)C(=O)O (stereo not drawn) [CIPROFIBRATE]
> 30 µM: [1] | [2]

Nc1nc2ccc(OC(F)(F)F)cc2s1 [RILUZOLE]
> 30 µM: [3] | Thromboxane A2 receptor | [4] | [5] | [6] | [7] | [8]

BIVALIRUDIN
> 30 µM: [3] | Thromboxane A2 receptor | [4] | [5] | [6] | [7] | [8]
